# From patent publication US20250215002A1, “SOLID FORMS OF TYK2 INHIBITORS AND METHODS OF USE” (Takeda Pharmaceutical Company Limited, priority 2022, published 2025)
# “Also recorded” adds a separate entry of the source.
# Legend:
# Type in all cases: physicochemical
# [1] = Dynamic vapor sorption (DVS) moisture sorption/desorption; settings: for Hygroscopicity (description): DVS 5-95% RH
# Experimental: Moisture sorption/desorption data were collected on a Surface Measurement System DVS Intrinsic instrument. The samples were not dried prior to analysis. Sorption and desorption data were collected over a range from 5% to 95% RH in 10% RH increments under a nitrogen purge. The equilibrium criteria used for the analyses were 0.001 dm/dt weight change in 5 minutes with a minimum step time of 30 minutes and maximum equilibration time of 180 minutes with a 3-minute data logging interval. Data were not corrected for the initial moisture content of the samples.
# [2] = Relative humidity stressing (~90% RH), solid form by XRPD; settings: RT
# Text: Select materials were transferred to a vial, which was then uncapped and placed inside ajar containing a saturated aqueous barium chloride solution for ˜90% RH in the headspace (See, Nyqvist, H. E., Saturated Salt Solutions for Maintaining Specified Relative Humidities, Int. J. Pharm. Technol. Prod. Manuf 1983, 4, 47-48, which is incorporated by reference in its entirety). Jars were stored at the stated temperatures.
# XRPD patterns were collected with a PANalytical X'Pert PRO MPD or a PANalytical Empyrean diffractometer using an incident beam of Cu radiation produced using a long, fine-focus source. An elliptically graded multilayer mirror was used to focus Cu Kα X-rays through the specimen and onto the detector. Prior to the analysis, a silicon specimen (NIST SRM 640e) was analyzed to verify the observed position of the Si 111 peak is consistent with the NIST-certified position. A specimen of the sample was sandwiched between 3-μm-thick films and analyzed in transmission geometry. A beam-stop, short antiscatter extension, and antiscatter knife edge were used to minimize the background generated by air. Soller slits for the incident and diffracted beams were used to minimize broadening and asymmetry from axial divergence. Diffraction patterns were collected using a scanning position-sensitive detector (X'Celerator) located 240 mm from the specimen and Data Collector software v. […]
# [3] = Stable form screen slurries, resulting solid form by XRPD
# Text: Early in the study, slurries were set up for the stable form screen at RT (Table 5, infra). In these experiments, solids of the as-received mixture of Form A+minor Material B were combined with given solvent systems at a solid loading that allowed for undissolved solids to remain, and the mixtures were stirred at ambient conditions. […] Two slurries were selected for isolation at that time to confirm the solid form and chemical composition, while the remaining slurries were covered with foil as a precaution. The slurry in THF, which was observed as a green suspension (darker than many of the other slurries), caused conversion to a new crystalline form, designated as Form C.
# Additional slurries were set up at elevated temperatures (˜60° C. and ˜80° C.) and sub-ambient temperatures (2 to 8° C.) as well. […]
# XRPD patterns were collected with a PANalytical X'Pert PRO MPD or a PANalytical Empyrean diffractometer using an incident beam of Cu radiation produced using a long, fine-focus source. […] Prior to the analysis, a silicon specimen (NIST SRM 640e) was analyzed to verify the observed position of the Si 111 peak is consistent with the NIST-certified position. A specimen of the sample was sandwiched between 3-μm-thick films and analyzed in transmission geometry. […]
# [4] = Heating/desolvation experiments (TGA), recovered solids by XRPD
# Experimental: TG analysis was performed using a Mettler-Toledo TGA/DSC3+ analyzer. Temperature calibration was performed using calcium oxalate, indium, tin, and zinc. The sample was placed in an aluminum pan. The pan was hermetically sealed, the lid pierced, then inserted into the TG furnace. A weighed aluminum pan configured as the sample pan was placed on the reference platform. The furnace was heated under nitrogen. Samples were analyzed from 25° C. to 350° C. at 10° C./min. The TGA/DSC3+ instrument was also used for select heating/desolvation experiments, in which solids were heated as described to a given temperature, then recovered and analyzed by XRPD.
# [5] = Slurries of Form C at high water activity, resulting form by XRPD; settings: 1 d
# Experimental: In addition to the slurries starting with Form A, two slurries of Form C were set up at high water activity conditions to study possible conversion to a hydrate (Table 9, supra). THF/water 50:50 (aw ˜1) and neat water (aw 1) were used.
# Suspensions were prepared by adding enough solids to a given solvent at the stated conditions so that undissolved solids were present. The mixture was then agitated (typically by stirring or oscillation) in a sealed vial at a given temperature for an extended period of time. The solids were isolated as described above.
Hygroscopicity (description) [1],DVS weight gain 5-95% RH ([1]; sorption 5-95% RH) [%],XRPD Result after RH stress ([2]; 6 d),"Critical water activity (aw) between Form A and Form C ([3]; RT, hydrate Form A versus anhydrous Form C)",DVS weight change at 5% RH ([1]; 5% RH) [% weight change at 5% RH],post-DVS XRPD (solid form after DVS) ([1]; after sorption/desorption cycle 5-95-5% RH),DVS weight loss 95-5% RH ([1]; desorption 95-5% RH) [% weight loss 95-5% RH],"DVS weight gain 5-95% RH, equivalent moles of water ([1]; sorption 5-95% RH) [mol]",XRPD Result after slurry ([5]; slurry in THF/water 50:50 (aw ~1)),XRPD Result after slurry ([5]; slurry in water (aw 1)),"XRPD Result after heating ([4]; heat to 270° C., cool to 40° C., heat to 200° C. (TGA))",SMILES,XRPD Result after heating ([4]; heat to 150° C. (TGA)),XRPD Result after RH stress ([2]; 11 d),Thermodynamic stability of the form (description) ([3]; between 2° C. and 80° C.)
significant hygroscopicity,4.58,still consisting of Form A,0.69-0.82,,,,,,,,CNc1cc(Nc2cccn(-c3ccccn3)c2=O)nc2c(C(=O)N[C@@H]3CC[C@H]3OC)cnn12 [Form A],Full conversion to Form C; also recorded: converted to Form C upon,,
limited hygroscopicity,1.75,,,0.00,consistent with Form C,1.80,~0.5,Full conversion to Form A,no form conversion,Material D,CNc1cc(Nc2cccn(-c3ccccn3)c2=O)nc2c(C(=O)N[C@@H]3CC[C@H]3OC)cnn12 [Form C],,consistent with Form C; also recorded: did not readily convert to a hydrate,likely thermodynamically stable anhydrous/non-solvated form
